Like-named read-outs stand apart in the source and are kept apart here.
Columns and labels:
[1] = tested on: Aβ 40 in conditioned medium of cells stably expressing Amyloid Precursor Protein (APP); assay: In vitro BACE cell-based assay (Aβ 40 sandwich ELISA); conditions: Homo sapiens, HEK293
In short: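 Aβ40 in conditioned medium measured by pAb40/biotin-6E10 sandwich ELISA with time-resolved europium fluorescence, after 24 h exposure of stable APP cells to compounds (10-point series starting 100 μM or 10 μM; 0.1% DMSO). IC50 fitted from percent of control against concentration.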

[2] = biological target: Beta Secretase enzyme (BACE) (Homo sapiens, UniProt P56817); assay: In vitro enzymatic BACE FRET assay; assay type: biochemical; conditions: read-out: BACE1 FRET assay IC50
Sequence of Beta Secretase enzyme (BACE) (P56817 46-501): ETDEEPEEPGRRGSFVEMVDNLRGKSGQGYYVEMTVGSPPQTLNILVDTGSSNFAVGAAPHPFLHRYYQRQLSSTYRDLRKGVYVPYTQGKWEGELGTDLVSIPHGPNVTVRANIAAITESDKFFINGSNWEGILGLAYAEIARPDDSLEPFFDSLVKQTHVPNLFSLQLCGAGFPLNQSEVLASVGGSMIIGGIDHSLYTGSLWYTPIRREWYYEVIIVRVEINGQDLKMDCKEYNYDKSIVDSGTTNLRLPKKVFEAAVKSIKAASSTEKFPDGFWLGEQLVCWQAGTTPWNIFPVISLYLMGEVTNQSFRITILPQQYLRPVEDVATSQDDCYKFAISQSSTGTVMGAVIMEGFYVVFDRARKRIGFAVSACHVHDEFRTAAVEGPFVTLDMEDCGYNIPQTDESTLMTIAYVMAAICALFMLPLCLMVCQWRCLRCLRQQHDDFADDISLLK
In short: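 Cleavage of a quenched 50 nM FRET peptide substrate, read as fluorescence (excitation 488 nm, […]) after 1 h and Tris quench to neutrality. Buffer: 0.05 M acetate pH 4.2 with 10% DMSO and 100 uM genapol. Inhibitor dilutions were pre-incubated 1 h with 0.2 nM enzyme.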

Cathepsin D (Cat D) = Cathepsin D (Cat D) (Homo sapiens, UniProt P07339); assay: In vitro enzymatic Cathepsin D (Cat D) FRET assay; assay type: biochemical; conditions: read-out: CatD IC50
Sequence of Cathepsin D (Cat D) (P07339 65-412, species assumed): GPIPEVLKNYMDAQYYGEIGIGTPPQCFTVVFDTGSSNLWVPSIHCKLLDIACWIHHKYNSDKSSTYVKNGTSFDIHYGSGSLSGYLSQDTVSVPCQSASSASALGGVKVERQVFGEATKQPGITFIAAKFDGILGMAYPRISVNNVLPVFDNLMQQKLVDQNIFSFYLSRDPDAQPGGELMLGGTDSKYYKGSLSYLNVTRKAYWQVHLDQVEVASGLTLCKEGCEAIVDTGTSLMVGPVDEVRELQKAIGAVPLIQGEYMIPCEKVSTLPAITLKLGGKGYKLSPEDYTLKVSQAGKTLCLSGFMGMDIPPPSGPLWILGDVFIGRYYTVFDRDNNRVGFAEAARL
In short: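 FRET peptide substrate (20 nM) is cleaved by CHO-derived recombinant enzyme (9 nM) for 1 h after a 1 h inhibitor pre-incubation, at pH 3.5 in citrate buffer with 5 mM CHAPS and 10% DMSO. Tris addition ends the reaction; fluorescence measured at 500 nm excitation, 580 nm emission.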

[3] = average IC50, HEK cell assay, Aβ 40 readout
[4] = average IC50, in vitro enzymatic BACE FRET assay

SMILES	IC50 [1, 3] [µM]	IC50 [2, 4] [µM]	IC50 (Cathepsin D (Cat D); Cathepsin D FRET assay) [µM]	IC50 ([1]; HEK cells, average IC50) [µM]	IC50 ([2]; average IC50) [µM]	IC50 (Cathepsin D (Cat D)) [µM]
COc1cnc2c(Nc3ccc4c(c3)[C@@]3(C)N=C(N)C(C)(C)S(=O)(=O)[C@@H]3CCO4)nccc2n1 [Example 156, (4aR,11bR)-N^~10^~-(2-methoxypyrido[3,4-b]pyrazin-5-yl)-3,3,11b-trimethyl-4a,5,6,11b-tetrahydro-3H-[1]benzoxepino[4,5-b][1,4]thiazine-2,10-diamine 4,4-dioxide]	0.014	0.011	1030			
Cc1cc(OC(F)F)cnc1C(=O)Nc1ccc2c(c1)[C@@]1(C)N=C(N)C(C)(C)S(=O)(=O)[C@@H]1CCO2 [Example 157, N-((4aR,11bR)-2-amino-3,3,11b-trimethyl-4,4-dioxido-4a,5,6,11b-tetrahydro-3H-[1]benzoxepino[4,5-b][1,4]thiazin-10-yl)-5-(difluoromethoxy)-3-methyl-2-pyridinecarboxamide]	0.003	0.002	1200			
COc1cnc(C(=O)Nc2ccc3c(c2)[C@@]2(C)N=C(N)C(C)(C)S(=O)(=O)[C@@H]2CCO3)c(C)c1 [Example 158, N-((4aR,11bR)-2-amino-3,3,11b-trimethyl-4,4-dioxido-4a,5,6,11b-tetrahydro-3H-[1]benzoxepino[4,5-b][1,4]thiazin-10-yl)-5-methoxy-3-methyl-2-pyridinecarboxamide]	0.007	0.021	> 400			
COc1cnc2c(Nc3ccc4c(c3)[C@@]3(C)N=C(N)C(C)(C)S(=O)(=O)[C@H]3CCO4)nccc2n1 [Example 159, (4aS,11bR)-N^~10^~-(2-methoxypyrido[3,4-b]pyrazin-5-yl)-3,3,11b-trimethyl-4a,5,6,11b-tetrahydro-3H-[1]benzoxepino[4,5-b][1,4]thiazine-2,10-diamine 4,4-dioxide]	0.052	0.075	> 400			
COc1cnc(C(=O)Nc2ccc3c(c2)[C@@]2(C)N=C(N)C(C)(C)S(=O)(=O)[C@H]2CCO3)c(C)c1 [Example 161, N-((4aS,11bR)-2-amino-3,3,11b-trimethyl-4,4-dioxido-4a,5,6,11b-tetrahydro-3H-[1]benzoxepino[4,5-b][1,4]thiazin-10-yl)-5-methoxy-3-methyl-2-pyridinecarboxamide]				0.008	0.032	878
COc1cnc2c(Nc3ccc4c(c3)[C@@]3(C)N=C(N)C(C)(C)S(=O)(=O)[C@@H]3CCO4)ncnc2c1 [Example 162, (4aR,11bR)-N^~10^~-(7-methoxypyrido[3,2-d]pyrimidin-4-yl)-3,3,11b-trimethyl-4a,5,6,11b-tetrahydro-3H-[1]benzoxepino[4,5-b][1,4]thiazine-2,10-diamine 4,4-dioxide]				0.009	0.007	619
CC1(C)C(N)=N[C@]2(C)c3cc(NC(=O)c4cnc(C(F)(F)F)cn4)ccc3OCC[C@H]2S1(=O)=O [Example 164, N-((4aR,11bR)-2-amino-3,3,11b-trimethyl-4,4-dioxido-4a,5,6,11b-tetrahydro-3H-[1]benzoxepino[4,5-b][1,4]thiazin-10-yl)-5-(trifluoromethyl)-2-pyrazinecarboxamide]				0.017	0.028	1600
CC1(C)C(N)=N[C@]2(C)c3cc(Nc4ncnc5cc(OCC6CC6)cnc45)ccc3OCC[C@H]2S1(=O)=O [Example 167, (4aR,11bR)-N1^~10^~-(7-(cyclopropylmethoxy)pyrido[3,2-d]pyrimidin-4-yl)-3,3,11b-trimethyl-4a,5,6,11b-tetrahydro-3H-[1]benzoxepino[4,5-b][1,4]thiazine-2,10-diamine 4,4-dioxide]				0.029	0.008	384
Cc1cc(OCC2CC2)cnc1C(=O)Nc1ccc2c(c1)[C@@]1(C)N=C(N)C(C)(C)S(=O)(=O)[C@@H]1CCO2 [Example 170, N-((4aR,11bR)-2-amino-3,3,11b-trimethyl-4,4-dioxido-4a,5,6,11b-tetrahydro-3H-[1]benzoxepino[4,5-b][1,4]thiazin-10-yl)-5-(cyclopropylmethoxy)-3-methyl-2-pyridinecarboxamide]				0.026	0.014	2050
CC1(C)C(N)=N[C@]2(C)c3cc(Nc4ncc(F)c5cc(C#N)cnc45)ccc3OCC[C@H]2S1(=O)=O [Example 171, 8-(((4aR,11bR)-2-amino-3,3,11b-trimethyl-4,4-dioxido-4a,5,6,11b-tetrahydro-3H-[1]benzoxepino[4,5-b][1,4]thiazin-10-yl)amino)-5-fluoro-1,7-naphthyridine-3-carbonitrile]				0.01	0.003	> 14.8
CC1(C)C(N)=N[C@]2(C)c3cc(NC(=O)c4ccc(OCC5CC5)cn4)ccc3OCC[C@H]2S1(=O)=O [Example 175, N-((4aR,11bR)-2-amino-3,3,11b-trimethyl-4,4-dioxido-4a,5,6,11b-tetrahydro-3H-[1]benzoxepino[4,5-b][1,4]thiazin-10-yl)-5-(cyclopropylmethoxy)-2-pyridinecarboxamide]				0.017	0.009	1510

Other lines, results leading:

IC50 [1, 3] [µM]	IC50 [2, 4] [µM]	IC50 (Cathepsin D (Cat D); Cathepsin D FRET assay) [µM]	IC50 ([1]; HEK cells, average IC50) [µM]	IC50 ([2]; average IC50) [µM]	IC50 (Cathepsin D (Cat D)) [µM]	SMILES
			0.003	0.01	1170	Cc1cc(OC(F)F)cnc1C(=O)Nc1ccc2c(c1)[C@@]1(C)N=C(N)C(C)(C)S(=O)(=O)[C@H]1CCO2 [Example 160, N-((4aS,11bR)-2-amino-3,3,11b-trimethyl-4,4-dioxido-4a,5,6,11b-tetrahydro-3H-[1]benzoxepino[4,5-b][1,4]thiazin-10-yl)-5-(difluoromethoxy)-3-methyl-2-pyridinecarboxamide]
			0.003	0.005	> 400	Cc1cc(C(F)F)cnc1C(=O)Nc1ccc2c(c1)[C@@]1(C)N=C(N)C(C)(C)S(=O)(=O)[C@@H]1CCO2 [Example 163, N-((4aR,11bR)-2-amino-3,3,11b-trimethyl-4,4-dioxido-4a,5,6,11b-tetrahydro-3H-[1]benzoxepino[4,5-b][1,4]thiazin-10-yl)-5-(difluoromethyl)-3-methyl-2-pyridinecarboxamide]
			0.004	0.006	1070	CC1(C)C(N)=N[C@]2(C)c3cc(NC(=O)c4ccc(C(F)(F)F)cn4)ccc3OCC[C@H]2S1(=O)=O [Example 165, N-((4aR,11bR)-2-amino-3,3,11b-trimethyl-4,4-dioxido-4a,5,6,11b-tetrahydro-3H-[1]benzoxepino[4,5-b][1,4]thiazin-10-yl)-5-(trifluoromethyl)-2-pyridinecarboxamide]
			0.0074	0.017	1130	COc1cnc(C(=O)Nc2ccc3c(c2)[C@@]2(C)N=C(N)C(C)(C)S(=O)(=O)[C@@H]2CCO3)cn1 [Example 166, N-((4aR,11bR)-2-amino-3,3,11b-trimethyl-4,4-dioxido-4a,5,6,11b-tetrahydro-3H-[1]benzoxepino[4,5-b][1,4]thiazin-10-yl)-5-methoxy-2-pyrazinecarboxamide]
			0.003	0.002	> 44.4	CC1(C)C(N)=N[C@]2(C)c3cc(Nc4nccc5cc(C#N)cnc45)ccc3OCC[C@H]2S1(=O)=O [Example 168, 8-(((4aR,11bR)-2-amino-3,3,11b-trimethyl-4,4-dioxido-4a,5,6,11b-tetrahydro-3H-[1]benzoxepino[4,5-b][1,4]thiazin-10-yl)amino)-1,7-naphthyridine-3-carbonitrile]
			0.004	0.001	1620	CC1(C)C(N)=N[C@]2(C)c3cc(NC(=O)c4cnc(OCC(F)(F)F)cn4)ccc3OCC[C@H]2S1(=O)=O [Example 169, N-((4aR,11bR)-2-amino-3,3,11b-trimethyl-4,4-dioxido-4a,5,6,11b-tetrahydro-3H-[1]benzoxepino[4,5-b][1,4]thiazin-10-yl)-5-(2,2,2-trifluoroethoxy)-2-pyrazinecarboxamide]
			0.004	0.012	> 400	CC1(C)C(N)=N[C@]2(C)c3cc(NC(=O)c4ncc(C(F)F)cc4Cl)ccc3OCC[C@H]2S1(=O)=O [Example 172, N-((4aR,11bR)-2-amino-3,3,11b-trimethyl-4,4-dioxido-4a,5,6,11b-tetrahydro-3H-[1]benzoxepino[4,5-b][1,4]thiazin-10-yl)-3-chloro-5-(difluoromethyl)-2-pyridinecarboxamide]
			0.007	0.005	> 400	COc1cnc(C(=O)Nc2ccc3c(c2)[C@@]2(C)N=C(N)C(C)(C)S(=O)(=O)[C@@H]2CCO3)c(Cl)c1 [Example 173, N-((4aR,11bR)-2-amino-3,3,11b-trimethyl-4,4-dioxido-4a,5,6,11b-tetrahydro-3H-[1]benzoxepino[4,5-b][1,4]thiazin-10-yl)-3-chloro-5-methoxy-2-pyridinecarboxamide]
			0.002	0.002	1070	CC1(C)C(N)=N[C@]2(C)c3cc(NC(=O)c4ncc(C#N)cc4Cl)ccc3OCC[C@H]2S1(=O)=O [Example 174, N-((4aR,11bR)-2-amino-3,3,11b-trimethyl-4,4-dioxido-4a,5,6,11b-tetrahydro-3H-[1]benzoxepino[4,5-b][1,4]thiazin-10-yl)-3-chloro-5-cyano-2-pyridinecarboxamide]
